One assay has as its system tube foot preparations. The settings on record: cited from earlier work. The method, then:
Based on the expression of ArBNP in the cardiac stomach and tube feet of A. rubens, experiments were performed to investigate effects of ArBN on in vitro preparations of these organs. […] In experiments where cardiac stomach preparations were washed in between application of ArBN at different ...

Assay [1] relates to GPCR activated by BN-type neuropeptide. Conditions: Branchiostoma japonicum; cited from earlier work. The source says:
Insights into the evolutionary history of BN-type neuropeptide signaling have been obtained from phylogenetic analysis of genome sequence data. A gene encoding a BN-type neuropeptide precursor was identified in the invertebrate chordate Branchiostoma floridae [subphylum Cephalochordata; ([4])] and, subsequently, experimental characterization of BN-type neuropeptide signaling in the cephalochordate Branchiostoma japonicum has been reported ([24]). A GPCR that is activated by the BN-type neuropeptide DKGQEHWQYGHWY-NH2 was identified. Furthermore, expression of the gene encoding this neuropeptide ...

The next assay relates to fundic muscle of mice. The settings on record: cited from earlier work. The source says:
(§1) The functional characterization of ArBN in A. rubens provides insights into the comparative physiology of BN-type neuropeptide signaling.

The subject of a further assay is BB2 receptor (GRP-R). The arrangement: method as in PMID 1707129, PMID 1848080, PMID 1671171, PMID 1655761, PMID 31593737. The settings on record: mammals; cited from earlier work.
Assay [2] has as its system A. rubens feeding behavior. Conditions: vs water; cited from earlier work. How it is done:
Based on the effects of NGFFYamide, ArSK/CCK1, and ArSK/CCK2 in triggering a process associated with termination of feeding behavior—cardiac stomach retraction—the effects of neuropeptides on feeding behavior of starfish have also been investigated. In these experiments starfish were starved and then presented with prey (a mussel) in a testing tank and the time taken to touch, enclose, and then consume the mussel was measured.

In assay [3] the test system is everted cardiac stomach of A. rubens. Briefly: In vivo retraction of everted cardiac stomach. The settings on record: 10 µL of 10^-4 M injected, words. The arrangement: species or system Asterias rubens. The source says:
Therefore, we performed experiments to investigate whether ArBN causes cardiac stomach retraction in A. rubens when injected in vivo. A description of the methods employed for investigation of in vivo effects of ArBN on the everted cardiac stomach of A. rubens is included in SI Appendix, SI Methods. […]
foot preparations. Having determined that ArBN had effects on preparations when tested at a high concentration (10^-6 M), then dose-response data for this peptide were obtained with final concentrations in the organ bath ranging from 10^-10 M to 10^-6 M. Two types of tests were performed when obtaining dose-response data for ArBN:
Test type 1: Here the preparation was washed thoroughly with seawater after adding ArBN to the organ at different concentrations. […]
The contraction effect of NGFFYamide (10^-7 M) or ACh (10^-5 M) was defined as 100% and the effects of ArBN were calculated as a percentage of the effect of NGFFYamide or ACh. […]
Analysis of the in vivo effects of ArBN on the everted cardiac stomach of A. rubens The physiological status of the starfish (~8 cm in diameter) tested was normalized by a 7-day starvation period. […] Then, the starfish was firstly injected with 10 µl of distilled water (negative control) and video recorded using a camera (Canon EOS 700D) for 7 min. Then, the same starfish was injected with NGFFYamide (positive control) or ArBN and video recorded for 7 min. […]

Assay [4] has the same test system. Conditions: cited from earlier work. The source says: (§2) Starfish (A. rubens) feed by everting their cardiac stomach out of the mouth over the digestible soft tissues of prey (e.g., mussels) and when feeding is completed, the stomach is retracted back into the central disk region of the body ([45]). […] Discovery of neuropeptides that exert excitatory or inhibitory effects on the cardiac stomach in vitro is of interest with respect to the unusual feeding behavior of A. rubens and other starfish. When starfish feed on bivalve mollusks such as mussels, they use the collective pulling power of tube feet loca ...

In assay [5] the test system is cardiac stomach preparations. Conditions: cited from earlier work. The method, then:
as §2, with “Based on the expression of ArBNP in the cardiac stomach and tube feet of A. rubens, experiments were performed to investigate effects of ArBN on in vitro preparations of these organs. […] In experiments where cardiac stomach preparations were washed in between application of ArBN at different ... || Starfish” for “Starfish”

A further assay concerns BB1 receptor (NMB-R). Conditions: mammals; cited from earlier work. The source says:
BN-type neuropeptides exert their effects by binding to GPCRs. In mammals, NMB and GRP act as high affinity ligands for the BB1 receptor (NMB-R) and the BB2 receptor (GRP-R), respectively, and orthologs of these receptors have been identified in nonmammalian vertebrates ([20]–[24]). […] BN-type neuropeptides are involved in regulation of a variety of physiological and behavioral processes in mammals/vertebrates, including t ...

The test system of assay [6] is intestinal smooth muscle from caimans. Conditions: cited from earlier work.
Excerpt: as §1

Entries after “also recorded” stand apart in the source; their conditions may differ. Ends that are not written are not given here.

On to `CC(=O)OCC[N+](C)(C)C` [ACh, acetylcholine], for which the “effect on tube foot preparations in vitro” value in the assay with tube foot preparations is “causes contraction of tube foot preparations in vitro”.
Consider “DKGQEHWQYGHWY-NH2 [BN-type neuropeptide of the cephalochordate Branchiostoma japonicum]”, for which the GPCR activation entry in [1] is recorded as “activated”.
For the compound “GRP: BN-like peptide identified in the porcine gut (APVSVGGGTVLAKMYPRGNHWAVGHLM; ends and bridges not checked; UniProt P63153 24-50, looked up)”, the “contraction of fundic muscle” value with fundic muscle of mice is listed as “dose-dependent contraction”. Moreover, in the assay with BB2 receptor (GRP-R), the “affinity for BB2 receptor (GRP-R)” value is “high affinity”.
On to NGFFYamide [positive control], for which, in assay [2], the “time taken to enclose a mussel” value is “increase in the time taken for starfish to touch and enclose a mussel”; the “time taken to touch a mussel” value is “increase in the time taken for starfish to touch”. Moreover, the cardiac stomach retraction entry in assay [3] is reported as “caused cardiac stomach retraction”. The “cardiac stomach retraction in vivo” value in assay [4] was “retraction in vivo; also recorded: trigger retraction of the everted cardiac stomach”. The “effect on cardiac stomach preparations in vitro” value in assay [5] is “causes contraction of cardiac stomach preparations in vitro; also recorded: triggers cardiac stomach contraction in vitro; also recorded: cause cardiac stomach contraction in vitro”.
For the compound “NMB: ranatensin-like peptide identified in the porcine spinal cord”, the “contraction of fundic muscle” value in the assay with fundic muscle of mice is reported as “dose-dependent contraction”. Further, the “affinity for BB1 receptor (NMB-R)” value in the assay on BB1 receptor (NMB-R) is given as “high affinity”.
Turning to “pQQRLGNQWAVGHLM-NH2 [BN, peptide first isolated from the skin of the frog Bombina bombina]”, the “effect on intestinal smooth muscle” value in assay [6] is “excitatory effect”.

The values above are taken from publication PMC12002301, “Discovery and functional characterization of a bombesin-type neuropeptide signaling system in an invertebrate” (Proceedings of the National Academy of Sciences of the …, 2025).
